These are literature values, as cited in patent US20110020841A1, “CENTROSOME AMPLIFICATION AS A BIOSENSOR FOR DNA DAMAGE” (National University of Ireland, Galway, priority 2006, published 2011).

For the series, the system named is Chk1 kinase. The following applies: inhibition of Chk1 kinase with the drug; vertebrate cells; reference 11.

Consider `CN[C@@H]1C[C@H]2O[C@@](C)([C@@H]1OC)n1c3ccccc3c3c4c(c5c6ccccc6n2c5c31)C(=O)N[C@@H]4O` [UCN-01], for which the “DNA damage-induced centrosome amplification” value is listed as “suppresses DNA damage-centrosome amplification”.
